From publication PMC6044914 (ACS Omega, 2017)
≈ marks a conversion by molar mass, not a printed value. Where two headings read alike, the source gives them in different places.

Assays:
[1] = test system: M. tuberculosis H37Rv (London Pride); assay: microbe, parasite or virus in culture; type: cell-based, Mycobacterium tuberculosis; conditions: for activity against M. tuberculosis (in words): SAR discussion
Vero cells = conditions: for cytotoxicity (in words): Vero cells
[2] = Mycobacterium tuberculosis, H37RV
[3] = Mycobacterium tuberculosis, H37RV, 120 h

Molecule | activity against M. tuberculosis (in words) [1] | MIC [1, 2] | TC50 (Vero cells; African green monkey) | MIC [1, 3] | also measured
O=[N+]([O-])c1cnc(NCc2ccccn2)s1 [compound 56, 5-Nitro-N-(pyridin-2-ylmethyl)thiazol-2-amine] | inactive |  |  |  | 
O=[N+]([O-])c1cnc(NS(=O)(=O)c2ccccc2O)s1 [compound 54, 2-Hydroxy-N-(5-nitrothiazol-2-yl)benzenesulfonamide] | inactive |  |  |  | 
O=C(Nc1nc(-c2ccccn2)c([N+](=O)[O-])s1)c1ccccn1 [compound 53, N-(5-Nitro-4-(pyridin-2-yl)thiazol-2-yl)picolinamide] | some activity | 8.5 ± 2.1 µM (≈ 2.78 µg/mL) | 6.4 µM |  | cytotoxicity (in words) (Vero cells): cytotoxicity
CO[C@H]1/C=C/O[C@@]2(C)Oc3c(C)c(O)c4c(O)c(c(/C=N/N5CCN(C)CC5)c(O)c4c3C2=O)NC(=O)/C(C)=C\C=C\[C@H](C)[C@H](O)[C@@H](C)[C@@H](O)[C@@H](C)[C@H](OC(C)=O)[C@@H]1C [rifampicin, reference compound] |  |  | >50 µM | 0.004 µM (≈ 0.00329 µg/mL) | 
O=C(Nc1ncc([N+](=O)[O-])s1)N1CCCCC1 [compound 31, N-(5-Nitrothiazol-2-yl)piperidine-1-carboxamide] |  | > 20 µM |  |  | 
COc1ccc(C(=O)Nc2ncc([N+](=O)[O-])s2)nc1 [compound 21, 5-Methoxy-N-(5-nitrothiazol-2-yl)picolinamide] |  |  | 4.3 µM | 5.5 ± 2.1 µM (≈ 1.54 µg/mL) | 
O=C(Nc1ncc([N+](=O)[O-])s1)c1cccnc1 [compound 34, N-(5-Nitrothiazol-2-yl)nicotinamide] |  | > 20 µM |  |  | 
Cn1ccnc1C(=O)Nc1ncc([N+](=O)[O-])s1 [compound 40, 1-Methyl-N-(5-nitrothiazol-2-yl)-1H-imidazole-2-carboxamide] |  | > 20 µM |  |  | 
O=C(Nc1ncc(C(=O)O)s1)c1ccccn1 [compound 51, 2-(Picolinamido)thiazole-5-carboxylic Acid] | inactive | > 20 µM | >50 µM |  | 
O=C(Nc1ncc([N+](=O)[O-])s1)C1CC1 [compound 27, N-(5-nitrothiazol-2-yl)cyclopropanecarboxamide] | loss of activity | > 20 µM |  |  | 
O=C(Nc1ncc([N+](=O)[O-])s1)c1ncco1 [compound 41, N-(5-Nitrothiazol-2-yl)oxazole-2-carboxamide] |  | > 20 µM |  |  | 
O=C(Nc1nc(-c2ccccn2)cs1)c1ccccn1 [compound 52, N-(4-(Pyridin-2-yl)thiazol-2-yl)picolinamide] | inactive | > 20 µM | 15 µM |  | 
CCC(C)(C)C(=O)Oc1cccnc1C(=O)Nc1ncc([N+](=O)[O-])s1 [compound 23, 2-((5-Nitrothiazol-2-yl)carbamoyl)pyridin-3-yl 2,2-dimethylbutanoate] |  |  | 21 µM | 12 ± 1 µM (≈ 4.37 µg/mL) | 
Cc1nc(NC(=O)c2ccccn2)sc1[N+](=O)[O-] [compound 50, N-(4-Methyl-5-nitrothiazol-2-yl)picolinamide] | some activity | 1.5 ± 0.6 µM (≈ 0.396 µg/mL) | 4.2 µM |  | cytotoxicity (in words) (Vero cells): cytotoxicity
CNc1ccccc1C(=O)Nc1ncc([N+](=O)[O-])s1 [compound 6, 2-(Methylamino)-N-(5-nitrothiazol-2-yl)benzamide] | no activity |  | 15 µM | > 20 µM | 
Cc1nc(NC(=O)c2ccccc2O)sc1[N+](=O)[O-] [compound 46, 2-Hydroxy-N-(4-methyl-5-nitrothiazol-2-yl)benzamide] | inactive | > 20 µM | 5.2 µM |  | 
O=C(Nc1ncc([N+](=O)[O-])s1)NC1CCCCC1 [compound 38, 1-Cyclohexyl-3-(5-nitrothiazol-2-yl)urea] |  | > 20 µM |  |  | 
COc1cccnc1C(=O)Nc1ncc([N+](=O)[O-])s1 [compound 24, 3-Methoxy-N-(5-nitrothiazol-2-yl)picolinamide] | inactive |  | 37 µM | > 20 µM | 
O=C(Nc1ncc([N+](=O)[O-])s1)c1nccs1 [compound 33, N-(5-Nitrothiazol-2-yl)thiazole-2-carboxamide] |  | > 20 µM |  |  | 
O=C(Nc1ccccn1)Nc1ncc([N+](=O)[O-])s1 [compound 39, 1-(5-Nitrothiazol-2-yl)-3-(pyridin-2-yl)urea] |  | > 20 µM |  |  | 
O=C(Nc1ncc([N+](=O)[O-])s1)c1cc(F)ccc1O [compound 11, 5-Fluoro-2-hydroxy-N-(5-nitrothiazol-2-yl)benzamide] | no activity |  |  | > 20 µM | 
O=C(Nc1ncc([N+](=O)[O-])s1)c1cnccn1 [compound 32, N-(5-Nitrothiazol-2-yl)pyrazine-2-carboxamide] |  | > 20 µM |  |  | 

Molecule | activity against M. tuberculosis (in words) [1] | MIC [1, 2] | TC50 (Vero cells; African green monkey) | MIC [1, 3] | also measured
Cc1cnc(NC(=O)c2ccccn2)s1 [compound 48, N-(5-Methylthiazol-2-yl)picolinamide] | inactive | > 20 µM | 12 µM |  | 
O=C(Nc1ncc([N+](=O)[O-])s1)c1nc2ccccc2s1 [compound 44, N-(5-Nitrothiazol-2-yl)benzo[d]thiazole-2-carboxamide] |  | > 20 µM |  |  | 
O=C(Nc1ncc([N+](=O)[O-])s1)c1cc(O)ccc1O [compound 15, 2,5-Dihydroxy-N-(5-nitrothiazol-2-yl)benzamide] | no activity |  | 13 µM | > 20 µM | 
O=C(Nc1ncc([N+](=O)[O-])s1)c1ccon1 [compound 42, N-(5-Nitrothiazol-2-yl)isoxazole-3-carboxamide] |  | > 20 µM |  |  | 
Nc1ccccc1C(=O)Nc1ncc([N+](=O)[O-])s1 [compound 5, 2-Amino-N-(5-nitrothiazol-2-yl)benzamide] | no activity |  | 31 µM | > 20 µM | 
CC(C)(C)OC(=O)Nc1ccccc1C(=O)Nc1ncc([N+](=O)[O-])s1 [compound 10, tert-Butyl (2-((5-nitrothiazol-2-yl)carbamoyl)phenyl)carbamate] | showed activity |  | 6.6 µM | 17 ± 4.2 µM (≈ 6.19 µg/mL) | 
O=C(Nc1ncc(C(F)(F)F)s1)c1ccccn1 [compound 49, N-(5-(Trifluoromethyl)thiazol-2-yl)picolinamide] | some activity | 5.3 ± 0.2 µM (≈ 1.45 µg/mL) | 0.8 µM |  | cytotoxicity (in words) (Vero cells): cytotoxicity
COc1ccccc1C(=O)Nc1ncc([N+](=O)[O-])s1 [compound 17, 2-Methoxy-N-(5-nitrothiazol-2-yl)benzamide] | no activity |  |  | > 20 µM | 
CC(=O)Nc1ccccc1C(=O)Nc1ncc([N+](=O)[O-])s1 [compound 7, 2-Acetamido-N-(5-nitrothiazol-2-yl)benzamide] | no activity |  |  | > 20 µM | 
O=C(Nc1ncc([N+](=O)[O-])s1)c1ccncc1 [compound 35, N-(5-Nitrothiazol-2-yl)isonicotinamide] |  | > 20 µM |  |  | 
COc1ccnc(C(=O)Nc2ncc([N+](=O)[O-])s2)c1 [compound 20, 4-Methoxy-N-(5-nitrothiazol-2-yl)picolinamide] |  |  | 11 µM | 5.6 ± 4.2 µM (≈ 1.57 µg/mL) | 
CCC(C)(C)C(=O)Oc1cc(N2CCOCC2)ccc1C(=O)Nc1ncc([N+](=O)[O-])s1 [compound 14, 5-Morpholino-2-((5-nitrothiazol-2-yl)carbamoyl)phenyl 2,2-dimethylbutanoate] | no activity |  | 12 µM | > 20 µM | 
CCC(C)(C)C(=O)Nc1ccccc1C(=O)Nc1ncc([N+](=O)[O-])s1 [compound 9, 2-(2,2-Dimethylbutanamido)-N-(5-nitrothiazol-2-yl)benzamide] | showed activity |  | 4.1 µM | 17 ± 4.9 µM (≈ 6.16 µg/mL) | 
O=C(Nc1ncc([N+](=O)[O-])s1)C1CCCCC1O (stereo not drawn) [compound 29, 2-Hydroxy-N-(5-nitrothiazol-2-yl)cyclohexane-1-carboxamide] |  | > 20 µM |  |  | 
O=[N+]([O-])c1cnc(NCc2ccccc2O)s1 [compound 55, 2-(((5-Nitrothiazol-2-yl)amino)methyl)phenol] | inactive |  |  |  | 
Cc1cnc(C(=O)Nc2ncc([N+](=O)[O-])s2)s1 [compound 43, 5-Methyl-N-(5-nitrothiazol-2-yl)thiazole-2-carboxamide] |  | > 20 µM |  |  | 
O=C(Nc1ncc([N+](=O)[O-])s1)c1ccncn1 [compound 30, N-(5-Nitrothiazol-2-yl)pyrimidine-4-carboxamide] | loss of activity | > 20 µM |  |  | 
CC(=O)Oc1ccccc1C(=O)Nc1nccs1 [compound 45, 2-(Thiazol-2-ylcarbamoyl)phenyl Acetate] | eliminated all activity | > 20 µM | >50 µM |  | 
3-Isobutoxy-N-(5-nitrothiazol-2-yl)picolinamide [compound 22] |  |  |  |  | MIC ([1]; Table 1, […], average ± SD of two independent experiments): 16 ± 6.4 µM; TC50 (Vero cells): 8.9 µM
CC(=O)Nc1ncc([N+](=O)[O-])s1 [compound 26, N-(5-Nitrothiazol-2-yl)acetamide] | loss of activity | > 20 µM |  |  | 
CCC(C)(C)C(=O)Nc1cccnc1C(=O)Nc1ncc([N+](=O)[O-])s1 [compound 18, 3-(2,2-Dimethylbutanamido)-N-(5-nitrothiazol-2-yl)picolinamide] | showed activity |  | 0.9 µM | 1.4 ± 0.6 µM (≈ 0.509 µg/mL) | improvement in activity relative to 1 [1]: 10 fold
O=C(O)c1ccccc1C(=O)Nc1ncc([N+](=O)[O-])s1 [compound 16, 2-((5-Nitrothiazol-2-yl)carbamoyl)benzoic Acid] | no activity |  | >50 µM | > 20 µM | 
